Data from patent publication US20240092758A1, “IMIDAZOLO INDAZOLE COMPOUNDS AS JAK INHIBITORS” (Theravance Biopharma R&D IP, LLC, priority 2021, published 2024).

Key:
[1] = target: JAK1 (Homo sapiens (Human), UniProt P23458); experiment: Biochemical JAK kinase assay (LanthaScreen), JAK1; conditions: for Ki: read-out: JAK1 pKi (converted)
Description: (§1) A panel of four LanthaScreen JAK biochemical assays (JAK1, 2, 3 and Tyk2) were carried in a common kinase reaction buffer (50 mM HEPES, pH 7.5, 0.01% Brij-35, 10 mM MgCl2, and 1 mM EGTA). Recombinant GST-tagged JAK enzymes and a GFP-tagged STAT1 peptide substrate were obtained from Life Technologies.
(§2) Serially diluted compounds were pre-incubated with each of the four JAK enzymes and the substrate in white 384-well microplates (Corning) at ambient temperature for 1 h. ATP was subsequently added to initiate the kinase reactions in 10 μL total volume, with 1% DMSO. The final enzyme concentrations for JAK1, 2, 3 and Tyk2 are 4.2 nM, 0.1 nM, 1 nM, and 0.25 nM respectively; the corresponding Km ATP concentrations used are 25 μM, 3 μM, 1.6 μM, and 10 μM; while the substrate concentration is 200 nM for all four assays. Kinase reactions were allowed to proceed for 1 hour at ambient temperature before a 10 μL preparation of EDTA (10 mM final concentration) and Tb-anti-pSTAT1 (pTyr701) antibody (Life Technologies, 2 nM final concentration) in TR-FRET dilution buffer (Life Technologies) was added. The plates were allowed to incubate at ambient temperature for 1 h before being read on the EnVision reader (Perkin Elmer). Emission ratio signals (520 nm/495 nm) were recorded and utilized to calculate the percent inhibition values based on DMSO and background controls.
(§3) For dose-response analysis, percent inhibition data were plotted vs. compound concentrations, and IC50 values were determined from a 4-parameter robust fit model with the Prism software (GraphPad Software). Results were expressed as pIC50 (negative logarithm of IC50) and subsequently converted to pKi (negative logarithm of dissociation constant, Ki) using the Cheng-Prusoff equation.
(§4) Test compounds having a lower Ki value or higher pKi value in the four JAK assays show greater inhibition of JAK activity.

[2] = target: JAK2 (Homo sapiens (Human), UniProt O60674); experiment: Biochemical JAK kinase assay (LanthaScreen), JAK2; conditions: for Ki: read-out: JAK2 pKi (converted)
Description: as §1, §2, §3, §4

[3] = system: IL-13 induced STAT6 phosphorylation in BEAS-2B human lung epithelial cells; experiment: Cellular JAKI potency assay (BEAS-2B); format: cell-based; conditions: Homo sapiens, BEAS-2B, BEAS-2B cells, read-out: BEAS2B pIC50 (converted)
Description: The JAKI cellular potency assay was carried out by measuring inhibition of interleukin-13 (IL-13, R&D Systems) induced STAT6 phosphorylation in BEAS-2B human lung epithelial cells (ATCC). BEAS-2B cells were grown at 37° C. in a 5% CO2 humidified incubator in 50% DMEM/50% F-12 medium (Life Technologies) supplemented with 10% FBS (Hyclone), 100 U/mL penicillin, 100 μg/mL streptomycin (Life Technologies), and 2 mM GlutaMAX (Life Technologies). On day 1 of the assay, cells were seeded at a 7,500 cells/well density in white poly-D-lysine-coated 384-well plates (Corning) with 25 μL medium and were allowed to adhere overnight in the incubator. On day 2 of the assay, the medium was removed and replaced with 12 μL of assay buffer (Hank's Balanced Salt Solution/HBSS, 25 mM HEPES, and 1 mg/ml bovine serum albumin/BSA) containing dose-responses of test compounds. Compounds were serially diluted in DMSO and then diluted another 1000-fold in media to bring the final DMSO concentration to 0.1%. Cells were incubated with test compounds at 37° C. for 1 h and followed by the addition of 12 μl of pre-warmed IL-13 (80 ng/mL in assay buffer) for stimulation. After incubating at 37° C. for 30 min, the assay buffer (containing compound and IL-13) was removed, and 10 μL of cell lysis buffer (25 mM HEPES, 0.1% SDS, 1% NP-40, 5 mM MgCl2, 1.3 mM EDTA, 1 mM EGTA, supplemented with Complete Ultra mini protease inhibitors and PhosSTOP from Roche Diagnostics). The plates were shaken at ambient temperature for 30 min before the addition of detection reagents. Levels of pSTAT6 were measured using the AlphaLISA SureFire Ultra pSTAT6 (Tyr641) assay kit from PerkinElmer. For dose-response analysis, percent inhibition data were plotted vs. compound concentrations, and IC50 values were determined from a 4-parameter robust fit model with the Graphpad Prism software. Results are expressed as the negative logarithm of the IC50 value, pIC50.
Test compounds having a lower IC50 value or higher pIC50 value in this assay show greater inhibition of IL-13 induced STAT6 phosphorylation.

Sequence of JAK1 (P23458 whole entry): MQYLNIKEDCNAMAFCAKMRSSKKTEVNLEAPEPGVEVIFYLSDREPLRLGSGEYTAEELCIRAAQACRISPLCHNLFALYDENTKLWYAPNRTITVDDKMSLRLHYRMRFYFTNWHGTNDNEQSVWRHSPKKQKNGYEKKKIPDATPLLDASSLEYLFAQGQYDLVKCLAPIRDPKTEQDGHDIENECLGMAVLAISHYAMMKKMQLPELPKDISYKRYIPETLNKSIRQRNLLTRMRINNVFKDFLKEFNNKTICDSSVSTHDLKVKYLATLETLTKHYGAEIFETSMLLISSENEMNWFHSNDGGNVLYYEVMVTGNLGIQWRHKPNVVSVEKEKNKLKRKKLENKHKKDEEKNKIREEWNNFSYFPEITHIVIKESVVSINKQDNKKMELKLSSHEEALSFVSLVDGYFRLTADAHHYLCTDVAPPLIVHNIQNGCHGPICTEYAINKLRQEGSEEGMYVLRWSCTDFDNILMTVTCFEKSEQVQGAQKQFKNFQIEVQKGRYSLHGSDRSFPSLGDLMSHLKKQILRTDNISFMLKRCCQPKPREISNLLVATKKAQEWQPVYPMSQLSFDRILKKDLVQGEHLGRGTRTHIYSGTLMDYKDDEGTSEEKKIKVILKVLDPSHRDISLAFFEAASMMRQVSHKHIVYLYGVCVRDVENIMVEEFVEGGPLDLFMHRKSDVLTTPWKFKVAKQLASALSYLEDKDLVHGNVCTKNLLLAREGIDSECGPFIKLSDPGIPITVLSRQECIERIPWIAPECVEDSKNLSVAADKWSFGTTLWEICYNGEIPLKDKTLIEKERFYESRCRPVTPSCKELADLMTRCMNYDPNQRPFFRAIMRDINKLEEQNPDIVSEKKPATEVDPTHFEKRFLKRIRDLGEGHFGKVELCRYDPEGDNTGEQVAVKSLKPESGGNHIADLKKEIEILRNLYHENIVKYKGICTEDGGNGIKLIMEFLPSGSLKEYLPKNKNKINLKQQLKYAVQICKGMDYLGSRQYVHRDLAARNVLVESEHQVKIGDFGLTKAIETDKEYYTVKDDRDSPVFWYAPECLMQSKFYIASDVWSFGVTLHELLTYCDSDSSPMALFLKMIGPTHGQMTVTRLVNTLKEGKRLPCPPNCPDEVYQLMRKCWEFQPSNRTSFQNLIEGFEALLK
Sequence of JAK2 (O60674 whole entry): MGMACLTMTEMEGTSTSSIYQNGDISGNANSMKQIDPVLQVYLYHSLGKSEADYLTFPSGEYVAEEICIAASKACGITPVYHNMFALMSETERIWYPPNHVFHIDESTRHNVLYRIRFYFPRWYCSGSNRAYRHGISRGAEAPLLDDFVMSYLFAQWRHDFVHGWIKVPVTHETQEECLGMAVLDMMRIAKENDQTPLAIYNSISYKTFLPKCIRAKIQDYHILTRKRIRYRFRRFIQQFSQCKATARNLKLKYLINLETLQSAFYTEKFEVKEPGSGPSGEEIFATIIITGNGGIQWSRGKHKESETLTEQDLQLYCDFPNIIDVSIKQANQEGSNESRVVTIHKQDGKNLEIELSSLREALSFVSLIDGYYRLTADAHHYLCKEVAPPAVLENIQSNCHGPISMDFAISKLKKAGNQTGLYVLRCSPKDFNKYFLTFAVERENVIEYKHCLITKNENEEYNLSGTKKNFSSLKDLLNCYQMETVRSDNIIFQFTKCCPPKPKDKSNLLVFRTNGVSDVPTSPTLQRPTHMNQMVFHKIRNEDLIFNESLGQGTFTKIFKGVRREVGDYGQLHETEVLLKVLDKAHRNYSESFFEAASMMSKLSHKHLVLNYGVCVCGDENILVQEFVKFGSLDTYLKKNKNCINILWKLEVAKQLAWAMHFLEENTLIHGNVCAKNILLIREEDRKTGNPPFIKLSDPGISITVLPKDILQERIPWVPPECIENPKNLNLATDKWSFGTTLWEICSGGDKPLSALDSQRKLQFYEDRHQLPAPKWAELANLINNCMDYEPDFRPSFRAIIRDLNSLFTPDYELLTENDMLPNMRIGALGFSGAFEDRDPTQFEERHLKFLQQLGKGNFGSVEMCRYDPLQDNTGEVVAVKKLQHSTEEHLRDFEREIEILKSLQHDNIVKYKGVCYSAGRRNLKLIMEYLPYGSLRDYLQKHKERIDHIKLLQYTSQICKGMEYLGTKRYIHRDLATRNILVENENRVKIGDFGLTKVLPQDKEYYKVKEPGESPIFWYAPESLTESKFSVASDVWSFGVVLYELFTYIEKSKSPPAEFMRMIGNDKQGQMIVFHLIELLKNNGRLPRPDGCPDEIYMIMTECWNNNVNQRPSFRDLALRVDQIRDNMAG

SMILES: CCc1cc(O)ccc1-c1ccc2c(-c3nc(C4=CCN(CCNC(C)=O)CC4)c[nH]3)n[nH]c2c1F [Example 107]
- JAK1 pKi [1]: A (A represents a pKi value ≥10 (Ki≤0.1 nM))
- JAK2 pKi [2]: A (A represents a pKi value ≥10 (Ki≤0.1 nM))
- IC50 [3]: 10 to 31.6 nM

SMILES: CCc1cc(O)ccc1-c1ccc2c(-c3nc(C4=CCCN(CCNS(C)(=O)=O)C4)c[nH]3)n[nH]c2c1 [Example 108]
- Ki [1]: 0.1 to 1 nM
- JAK2 pKi [2]: A (A represents a pKi value ≥10 (Ki≤0.1 nM))
- IC50 [3]: 10 to 31.6 nM

SMILES: CCc1cc(O)ccc1-c1ccc2c(-c3nc(C4=CCCN(CCNC(C)=O)C4)c[nH]3)n[nH]c2c1 [Example 109]
- Ki [1]: 0.1 to 1 nM
- Ki [2]: 0.1 to 1 nM
- IC50 [3]: 10 to 31.6 nM

SMILES: CCc1cc(O)ccc1-c1ccc2c(-c3nc(C4=CCCN(CCNC(=O)C(C)C)C4)c[nH]3)n[nH]c2c1 [Example 110]
- Ki [1]: 0.1 to 1 nM
- Ki [2]: 0.1 to 1 nM
- IC50 [3]: 10 to 31.6 nM

SMILES: CCc1cc(O)ccc1-c1ccc2c(-c3nc(C4=CCCN(CCNS(C)(=O)=O)C4)c[nH]3)n[nH]c2c1F [Example 111]
- Ki [1]: 0.1 to 1 nM
- Ki [2]: 0.1 to 1 nM
- IC50 [3]: 10 to 31.6 nM

SMILES: CCc1cc(O)ccc1-c1ccc2c(-c3nc(C4=CCCN(CCNC(C)=O)C4)c[nH]3)n[nH]c2c1F [Example 112]
- Ki [1]: 0.1 to 1 nM
- Ki [2]: 0.1 to 1 nM
- IC50 [3]: 10 to 31.6 nM

SMILES: CCc1cc(O)ccc1-c1ccc2c(-c3nc(C4=CCN(CCNS(C)(=O)=O)C4)c[nH]3)n[nH]c2c1 [Example 113]
- Ki [1]: 0.1 to 1 nM
- JAK2 pKi [2]: A (A represents a pKi value ≥10 (Ki≤0.1 nM))
- IC50 [3]: 10 to 31.6 nM

SMILES: CCc1cc(O)ccc1-c1ccc2c(-c3nc(C4=CCN(CCNC(C)=O)C4)c[nH]3)n[nH]c2c1 [Example 114]
- JAK1 pKi [1]: A (A represents a pKi value ≥10 (Ki≤0.1 nM))
- JAK2 pKi [2]: A (A represents a pKi value ≥10 (Ki≤0.1 nM))
- IC50 [3]: 3.16 to 10 nM

SMILES: CCc1cc(O)ccc1-c1ccc2c(-c3nc(C4=CCN(CCNS(C)(=O)=O)C4)c[nH]3)n[nH]c2c1F [Example 115]
- Ki [1]: 0.1 to 1 nM
- JAK2 pKi [2]: A (A represents a pKi value ≥10 (Ki≤0.1 nM))
- IC50 [3]: 10 to 31.6 nM

SMILES: CCc1cc(O)ccc1-c1ccc2c(-c3nc(C4=CCN(CCNC(C)=O)C4)c[nH]3)n[nH]c2c1F [Example 116]
- Ki [1]: 0.1 to 1 nM
- JAK2 pKi [2]: A (A represents a pKi value ≥10 (Ki≤0.1 nM))
- IC50 [3]: 10 to 31.6 nM

SMILES: CCc1cc(O)ccc1-c1ccc2c(-c3nc(C4=CCN(CCCNC(=O)C(C)C)CC4)c[nH]3)n[nH]c2c1 [Example 117]
- JAK1 pKi [1]: A (A represents a pKi value ≥10 (Ki≤0.1 nM))
- JAK2 pKi [2]: A (A represents a pKi value ≥10 (Ki≤0.1 nM))
- IC50 [3]: 3.16 to 10 nM

SMILES: CCc1cc(O)ccc1-c1ccc2c(-c3nc(C4=CCN(CCN5CCNC5=O)CC4)c[nH]3)n[nH]c2c1 [Example 118]
- JAK1 pKi [1]: A (A represents a pKi value ≥10 (Ki≤0.1 nM))
- JAK2 pKi [2]: A (A represents a pKi value ≥10 (Ki≤0.1 nM))
- IC50 [3]: 31.6 to 100 nM

SMILES: CCc1cc(O)ccc1-c1ccc2c(-c3nc(C4=CCN(CCN5CCCC5=O)CC4)c[nH]3)n[nH]c2c1F [Example 119]
- Ki [1]: 0.1 to 1 nM
- Ki [2]: 0.1 to 1 nM
- IC50 [3]: 10 to 31.6 nM

SMILES: CCc1cc(O)ccc1-c1ccc2c(-c3nc(C4=CCN(CCN5CCNC5=O)CC4)c[nH]3)n[nH]c2c1F [Example 120]
- Ki [1]: 0.1 to 1 nM
- Ki [2]: 0.1 to 1 nM
- IC50 [3]: 10 to 31.6 nM

SMILES: CCc1cc(O)ccc1-c1ccc2c(-c3nc(C4=CCN(C5CCC(O)CC5)CC4)c[nH]3)n[nH]c2c1F (stereo not drawn) [Example 121]
- Ki [1]: 0.1 to 1 nM
- JAK2 pKi [2]: A (A represents a pKi value ≥10 (Ki≤0.1 nM))
- IC50 [3]: 10 to 31.6 nM

SMILES: CCc1cc(O)ccc1-c1ccc2c(-c3nc(C4=CCN(CC5CNC(=O)O5)CC4)c[nH]3)n[nH]c2c1F (stereo not drawn) [Example 123]
- Ki [1]: 0.1 to 1 nM
- Ki [2]: 0.1 to 1 nM
- IC50 [3]: 31.6 to 100 nM

SMILES: CCc1cc(O)ccc1-c1ccc2c(-c3nc(C4=CCCN(CCN5CCNC5=O)C4)c[nH]3)n[nH]c2c1 [Example 124]
- JAK1 pKi [1]: A (A represents a pKi value ≥10 (Ki≤0.1 nM))
- JAK2 pKi [2]: A (A represents a pKi value ≥10 (Ki≤0.1 nM))
- IC50 [3]: 3.16 to 10 nM

SMILES: CCc1cc(O)ccc1-c1ccc2c(-c3nc(C4=CCCN(CCN5CCNC5=O)C4)c[nH]3)n[nH]c2c1F [Example 125]
- Ki [1]: 0.1 to 1 nM
- Ki [2]: 0.1 to 1 nM
- IC50 [3]: 31.6 to 100 nM
